Test results from patent US12344603B2 (Genentech, Inc., priority 2020, dated 2025).
Structures can show the parent of a compound that is named as a salt.

target: IRE1α (Homo sapiens (Human), UniProt O75460, D688N); test: IRE1α TR-FRET competition binding assay (IRE1α HTRF); settings: TR-FRET competition binding to kinase domain of IRE1α
Experimental: IRE1α TR-FRET Competition Binding Assay. The affinity of compound binding to the kinase domain of IRE1α was determined using a time-resolved fluorescence resonance energy transfer (TR-FRET) competition assay.
The purified protein (final concentration 0.25 nM) was pre-incubated with anti-His Europium labeled antibody (Life Technologies PV5596, final concentration 2 nM) for one hour at 4° C. in TR-FRET Assay Buffer (50 mM HEPES, pH 7.5, 10 mM MgCl2, 0.083 mM Brij 35, 1 mM DTT, and 0.1% bovine gamma globulin) prior to addition to test compounds. An Alexa fluor 647-labeled probe based on an ATP competitive inhibitor was added to a final concentration of 2 nM. Reactions were carried out for one hour at room temperature in a final volume of 20 μL in 384 well white ProxiPlates (Perkin Elmer 6008289). Binding of the probe to the IRE1α protein was detected in an Envision instrument (PerkinElmer) equipped with a TRF laser option and a LANCE/Delfia Dual/Bias D400/D630 mirror (Ex 347 nm, 1st Em 665 nm, 2nd Em 615 nm).

IRE1α, sequence (O75460 547-977 D688N): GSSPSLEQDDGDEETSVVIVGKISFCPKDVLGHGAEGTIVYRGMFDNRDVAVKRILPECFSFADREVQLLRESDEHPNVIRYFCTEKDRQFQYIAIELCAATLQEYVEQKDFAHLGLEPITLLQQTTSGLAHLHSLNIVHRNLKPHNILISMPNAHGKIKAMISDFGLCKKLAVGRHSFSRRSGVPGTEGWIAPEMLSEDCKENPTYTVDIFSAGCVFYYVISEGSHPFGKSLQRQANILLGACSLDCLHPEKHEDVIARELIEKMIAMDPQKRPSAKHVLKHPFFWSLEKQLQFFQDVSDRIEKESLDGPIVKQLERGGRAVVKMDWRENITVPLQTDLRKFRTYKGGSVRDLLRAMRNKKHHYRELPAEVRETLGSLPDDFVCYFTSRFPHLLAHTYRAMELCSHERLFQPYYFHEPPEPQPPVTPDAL

Structure (SMILES) | IC50 [pM]
CC(C)n1c(=O)c(-c2cc(F)c(NS(=O)(=O)Cc3ccccc3F)c(F)c2F)cc2cnc(N[C@@H]3CNC[C@@H](O)C3)nc21 (racemic) [Compound 87, 1-(2-Fluorophenyl)-N-(2,3,6-trifluoro-4-(2-((5-hydroxypiperidin-3-yl)amino)-8-isopropyl-7-oxo-7,8-dihydropyrido[2,3-d]pyrimidin-6-yl)phenyl)methanesulfonamide] | 630
CC(C)n1c(=O)c(-c2cc(F)c(NS(=O)(=O)CC3CCC3(F)F)c(F)c2)nc2cnc(N[C@H]3CC[C@H](N(C)C)CC3)nc21 (mixture of isomers) [Example 250, 1-(2,2-Difluorocyclobutyl)-N-[4-[2-[[4-(dimethylamino)cyclohexyl]amino]-8-isopropyl-7-oxo-pteridin-6-yl]-2,6-difluoro-phenyl]methanesulfonamide] | 200
CC(C)n1c(=O)c(-c2ccc(NS(=O)(=O)CC3CCC3(F)F)c(F)c2)nc2cnc(N[C@H]3CC[C@H](N(C)C)CC3)nc21 (mixture of isomers) [Example 263, 1-(2,2-Difluorocyclobutyl)-N-[4-[2-[[4-(dimethylamino)cyclohexyl]amino]-8-isopropyl-7-oxo-pteridin-6-yl]-2-fluoro-phenyl]methanesulfonamide] | 100
CC(C)n1c(=O)c(-c2ccc(NS(=O)(=O)CC3CCCC3(F)F)c(F)c2)nc2cnc(N[C@H]3CC[C@H](N(C)C)CC3)nc21 (mixture of isomers) [Example 264, 1-(2,2-Difluorocyclopentyl)-N-[4-[2-[[4-(dimethylamino)cyclohexyl]amino]-8-isopropyl-7-oxo-pteridin-6-yl]-2-fluoro-phenyl]methanesulfonamide] | 100
CC(C)n1c(=O)c(-c2ccc(NS(=O)(=O)CC3CCCCC3(F)F)c(F)c2)nc2cnc(N[C@H]3CC[C@H](N(C)C)CC3)nc21 (mixture of isomers) [Example 272, 1-(2,2-Difluorocyclohexyl)-N-[4-[2-[[4-(dimethylamino)cyclohexyl]amino]-8-isopropyl-7-oxo-pteridin-6-yl]-2-fluoro-phenyl]methanesulfonamide] | 200
CC(C)n1c(=O)c(-c2ccc(NS(=O)(=O)CC3CCC4C(C3)C4(F)F)c(F)c2)nc2cnc(N[C@H]3CC[C@H](N(C)C)CC3)nc21 (mixture of isomers) [Example 273, 1-(7,7-Difluoronorcaran-3-yl)-N-[4-[2-[[(1RS)-4-(dimethylamino)cyclohexyl]amino]-8-isopropyl-7-oxo-pteridin-6-yl]-2-fluoro-phenyl]methanesulfonamide] | 200
CC(C)n1c(=O)c(-c2cc(F)c(NC(=O)C3CC3F)c(F)c2F)cc2cnc(N[C@H]3CC[C@H](N(C)C)CC3)nc21 (single isomer, unassigned) [Compound 98A, N-(4-(2-(((1r,4r)-4-(Dimethylamino)cyclohexyl)amino)-8-isopropyl-7-oxo-7,8-dihydropyrido[2,3-d]pyrimidin-6-yl)-2,3,6-trifluorophenyl)-2-fluorocyclopropane-1-carboxamide] | 2800
CC(C)n1c(=O)c(-c2cc(F)c(NC(=O)C3CC3F)c(F)c2F)cc2cnc(N[C@H]3CC[C@H](N(C)C)CC3)nc21 (single isomer, unassigned) [Compound 98B, N-(4-(2-(((1r,4r)-4-(Dimethylamino)cyclohexyl)amino)-8-isopropyl-7-oxo-7,8-dihydropyrido[2,3-d]pyrimidin-6-yl)-2,3,6-trifluorophenyl)-2-fluorocyclopropane-1-carboxamide] | 2200
CC[C@@H](C)n1c(=O)c(-c2ccc(NS(=O)(=O)CCC(F)(F)F)c(F)c2)cc2cnc(N[C@H]3CC[C@H](N(C)C)CC3)nc21 (single isomer, unassigned) [Compound 203] | 210

Further lines, results first:

IC50 [pM] | Structure (SMILES)
160 | COCCN(C)C1CCC(Nc2ncc3cc(-c4cc(F)c(NS(=O)(=O)Cc5ccccc5)c(F)c4F)c(=O)n(C(C)C)c3n2)CC1 (single isomer, unassigned) [Compound 102A, 1-Phenyl-N-(2,3,6-trifluoro-4-(8-isopropyl-2-((4-((2-methoxyethyl)(methyl)amino)cyclohexyl)amino)-7-oxo-7,8-dihydropyrido[2,3-d]pyrimidin-6-yl)phenyl)methanesulfonamide]
66000 | COCCN(C)C1CCC(Nc2ncc3cc(-c4cc(F)c(NS(=O)(=O)Cc5ccccc5)c(F)c4F)c(=O)n(C(C)C)c3n2)CC1 (single isomer, unassigned) [Compound 102B, 1-Phenyl-N-(2,3,6-trifluoro-4-(8-isopropyl-2-((4-((2-methoxyethyl)(methyl)amino)cyclohexyl)amino)-7-oxo-7,8-dihydropyrido[2,3-d]pyrimidin-6-yl)phenyl)methanesulfonamide]
180 | CC(C)n1c(=O)c(-c2ccc(NS(=O)(=O)CCC(F)(F)F)c(F)c2)cc2cnc(NC3CCC(N(C)C)C(F)C3)nc21 (single isomer, unassigned) [Compound 110A, N-(4-(2-((4-(Dimethylamino)-3-fluorocyclohexyl)amino)-8-isopropyl-7-oxo-7,8-dihydropyrido[2,3-d]pyrimidin-6-yl)-2-fluorophenyl)-3,3,3-trifluoropropane-1-sulfonamide]
700 | CC(C)n1c(=O)c(-c2ccc(NS(=O)(=O)CCC(F)(F)F)c(F)c2)cc2cnc(NC3CCC(N(C)C)C(F)C3)nc21 (single isomer, unassigned) [Compound 110B, N-(4-(2-((4-(Dimethylamino)-3-fluorocyclohexyl)amino)-8-isopropyl-7-oxo-7,8-dihydropyrido[2,3-d]pyrimidin-6-yl)-2-fluorophenyl)-3,3,3-trifluoropropane-1-sulfonamide]
730 | CC(C)n1c(=O)c(-c2cc(F)c(NS(=O)(=O)CCC(F)(F)F)c(F)c2)cc2cnc(NC3CCC(N(C)C)C(F)C3)nc21 (single isomer, unassigned) [Compound 118A, N-(4-(2-((4-(Dimethylamino)-3-fluorocyclohexyl)amino)-8-isopropyl-7-oxo-7,8-dihydropyrido[2,3-d]pyrimidin-6-yl)-2,6-difluorophenyl)-3,3,3-trifluoropropane-1-sulfonamide]
320 | CC(C)n1c(=O)c(-c2cc(F)c(NS(=O)(=O)CCC(F)(F)F)c(F)c2)cc2cnc(NC3CC[C@H](N(C)C)C(F)C3)nc21 (single isomer, unassigned) [Compound 118B, N-(4-(2-((4-(Dimethylamino)-3-fluorocyclohexyl)amino)-8-isopropyl-7-oxo-7,8-dihydropyrido[2,3-d]pyrimidin-6-yl)-2,6-difluorophenyl)-3,3,3-trifluoropropane-1-sulfonamide]
210 | CC(C)n1c(=O)c(-c2ccc(NS(=O)(=O)CC3CCC3(F)F)c(F)c2)cc2cnc(N[C@H]3CC[C@H](N(C)C)CC3)nc21 (single isomer, unassigned) [Compound 153A, 1-(2,2-Difluorocyclobutyl)-N-(4-(2-(((1r,4r)-4-(dimethylamino)cyclohexyl)amino)-8-isopropyl-7-oxo-7,8-dihydropyrido[2,3-d]pyrimidin-6-yl)-2-fluorophenyl)methanesulfonamide]
160 | CC(C)n1c(=O)c(-c2ccc(NS(=O)(=O)CC3CCC3(F)F)c(F)c2)cc2cnc(N[C@H]3CC[C@H](N(C)C)CC3)nc21 (single isomer, unassigned) [Compound 153B, 1-(2,2-Difluorocyclobutyl)-N-(4-(2-(((1r,4r)-4-(dimethylamino)cyclohexyl)amino)-8-isopropyl-7-oxo-7,8-dihydropyrido[2,3-d]pyrimidin-6-yl)-2-fluorophenyl)methanesulfonamide]
260 | CCC(C)n1c(=O)c(-c2ccc(NS(=O)(=O)Cc3ccccc3F)c(F)c2)cc2cnc(N[C@@H]3CNC[C@@H](F)C3)nc21 (single isomer, unassigned) [Compound 202A, hydrochloride]
260 | CCC(C)n1c(=O)c(-c2ccc(NS(=O)(=O)Cc3ccccc3F)c(F)c2)cc2cnc(N[C@@H]3CNC[C@@H](F)C3)nc21 (single isomer, unassigned) [Compound 202B, hydrochloride]
100 | CC[C@H](C)n1c(=O)c(-c2ccc(NS(=O)(=O)CCC(F)(F)F)c(F)c2)cc2cnc(N[C@H]3CC[C@H](N(C)C)CC3)nc21 (single isomer, unassigned) [Compound 203A]
240 | CC(C)n1c(=O)c(-c2cc(F)c(NS(=O)(=O)CCC(F)(F)F)c(F)c2)nc2cnc(N[C@H]3CC[C@H](N(C)C)[C@@H](F)C3)nc21 (stereo in doubt) [Compound 168A, N-(4-(2-((4-(Dimethylamino)-3-fluorocyclohexyl)amino)-8-isopropyl-7-oxo-7,8-dihydropteridin-6-yl)-2,6-difluorophenyl)-3,3,3-trifluoropropane-1-sulfonamide]

same assay, conditions: TR-FRET competition binding to kinase domain of IRE1α; hydrochloride

IC50 [pM] | Structure (SMILES)
130 | CC(C)n1c(=O)c(-c2ccc(NS(=O)(=O)CCC(F)(F)F)c(F)c2)cc2cnc(NC3CCC(N(C)C)C(F)C3)nc21 (racemic) [Compound 154, N-(4-(2-((4-(Dimethylamino)-3-fluorocyclohexyl)amino)-8-isopropyl-7-oxo-7,8-dihydropyrido[2,3-d]pyrimidin-6-yl)-2-fluorophenyl)-3,3,3-trifluoropropane-1-sulfonamide hydrochloride]
